Laboratory results published in ChEMBL document CHEMBL3259542, “Design, synthesis and pharmacological evaluation of novel polycyclic heteroarene ethers as PDE10A inhibitors: Part I” (Bioorg Med Chem Lett, 2014).

What was measured:
[1] = target: T1, cAMP and cAMP-inhibited cGMP 3',5'-cyclic phosphodiesterase 10A (Homo sapiens, UniProt Q9Y233); experiment: Inhibition of N-terminal GST-tagged human recombinant PDE10A assessed as substrate hydrolysis using [3H]cAMP as substrate after 30 mins by two-step radiometric assay
T1 sequence (Q9Y233 whole entry): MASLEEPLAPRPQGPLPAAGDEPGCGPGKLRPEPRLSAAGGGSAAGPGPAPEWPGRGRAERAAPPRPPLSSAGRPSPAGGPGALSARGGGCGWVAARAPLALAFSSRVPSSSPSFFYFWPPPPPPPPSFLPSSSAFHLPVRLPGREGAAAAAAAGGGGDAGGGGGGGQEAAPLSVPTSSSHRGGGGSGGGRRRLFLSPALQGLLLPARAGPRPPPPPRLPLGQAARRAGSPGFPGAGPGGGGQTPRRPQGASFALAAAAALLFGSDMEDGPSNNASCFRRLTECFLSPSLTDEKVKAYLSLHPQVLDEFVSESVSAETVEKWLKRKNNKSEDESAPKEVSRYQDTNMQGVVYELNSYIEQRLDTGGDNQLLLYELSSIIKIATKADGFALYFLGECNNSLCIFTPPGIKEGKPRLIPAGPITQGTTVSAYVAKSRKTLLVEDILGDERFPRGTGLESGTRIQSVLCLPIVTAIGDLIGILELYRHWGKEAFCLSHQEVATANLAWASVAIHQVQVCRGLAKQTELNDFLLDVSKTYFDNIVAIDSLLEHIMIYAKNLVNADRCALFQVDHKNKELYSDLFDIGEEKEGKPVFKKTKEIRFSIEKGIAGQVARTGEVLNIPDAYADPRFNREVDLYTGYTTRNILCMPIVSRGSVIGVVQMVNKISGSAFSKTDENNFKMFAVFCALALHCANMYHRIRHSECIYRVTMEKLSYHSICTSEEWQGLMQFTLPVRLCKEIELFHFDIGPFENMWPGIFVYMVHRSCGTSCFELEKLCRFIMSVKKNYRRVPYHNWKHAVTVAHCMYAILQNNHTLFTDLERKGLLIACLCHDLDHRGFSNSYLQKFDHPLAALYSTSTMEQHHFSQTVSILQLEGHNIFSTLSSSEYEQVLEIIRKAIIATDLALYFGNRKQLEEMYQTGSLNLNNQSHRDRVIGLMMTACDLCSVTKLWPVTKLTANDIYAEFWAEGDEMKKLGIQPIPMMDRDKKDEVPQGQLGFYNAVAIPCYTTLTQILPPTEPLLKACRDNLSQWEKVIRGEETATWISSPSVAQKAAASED

[2] = target: cGMP-specific 3',5'-cyclic phosphodiesterase (Homo sapiens) (UniProt O76074); experiment: Inhibition of N-terminal GST-tagged human recombinant PDE5A assessed as substrate hydrolysis using [3H]cGMP as substrate at 1 uM after 30 mins by two-step radiometric assay
[3] = Retention time of the compound by HPLC analysis; assay type: physicochemical
[4] = Metabolic stability in human liver microsomes assessed as compound remaining at 1 uM after 60 mins; assay type: ADME; settings: read-out: Stability
Liver microsome [5] = experiment: Metabolic stability in rat liver microsomes assessed as metabolite M7 (9-methyl-3-(2-(3-(pyrimidin-5-yl)pyridin-2-yloxy)vinyl)-9H-pyrido[2,3-b]indole) formation at 1 uM after 60 mins by LC-MS/MS analysis; assay type: ADME; settings: 1 h
[6] = Metabolic stability in rat liver microsomes assessed as compound remaining at 1 uM after 60 mins; assay type: ADME; settings: read-out: Stability
[7] = target: Dual specificity calcium/calmodulin-dependent 3',5'-cyclic nucleotide phosphodiesterase 1A (Homo sapiens) (UniProt P54750); experiment: Inhibition of N-terminal GST-tagged human recombinant PDE1A assessed as substrate hydrolysis using [3H]cAMP as substrate at 1 uM after 30 mins by two-step radiometric assay
Chain of Dual specificity calcium/calmodulin-dependent 3',5'-cyclic nucleotide phosphodiesterase 1A (Homo sapiens) (P54750 whole entry): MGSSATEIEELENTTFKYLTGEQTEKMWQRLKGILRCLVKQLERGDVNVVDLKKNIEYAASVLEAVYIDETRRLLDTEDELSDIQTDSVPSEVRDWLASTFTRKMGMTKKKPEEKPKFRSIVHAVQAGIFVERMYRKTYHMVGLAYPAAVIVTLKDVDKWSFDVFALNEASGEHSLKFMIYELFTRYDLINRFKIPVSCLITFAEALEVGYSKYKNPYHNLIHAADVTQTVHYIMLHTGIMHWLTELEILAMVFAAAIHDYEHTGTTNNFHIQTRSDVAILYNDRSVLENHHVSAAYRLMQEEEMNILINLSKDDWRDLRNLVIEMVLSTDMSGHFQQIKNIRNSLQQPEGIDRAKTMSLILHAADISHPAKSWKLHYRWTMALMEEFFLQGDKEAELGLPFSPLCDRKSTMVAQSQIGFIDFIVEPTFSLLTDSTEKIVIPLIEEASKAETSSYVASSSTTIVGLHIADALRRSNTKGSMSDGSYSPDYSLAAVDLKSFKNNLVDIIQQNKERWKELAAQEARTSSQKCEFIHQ

[8] = target: High affinity cAMP-specific and IBMX-insensitive 3',5'-cyclic phosphodiesterase 8A (Homo sapiens) (UniProt O60658); experiment: Inhibition of N-terminal GST-tagged human recombinant PDE8A assessed as substrate hydrolysis using [3H]cAMP as substrate at 1 uM after 30 mins by two-step radiometric assay
Chain of High affinity cAMP-specific and IBMX-insensitive 3',5'-cyclic phosphodiesterase 8A (Homo sapiens) (O60658 whole entry): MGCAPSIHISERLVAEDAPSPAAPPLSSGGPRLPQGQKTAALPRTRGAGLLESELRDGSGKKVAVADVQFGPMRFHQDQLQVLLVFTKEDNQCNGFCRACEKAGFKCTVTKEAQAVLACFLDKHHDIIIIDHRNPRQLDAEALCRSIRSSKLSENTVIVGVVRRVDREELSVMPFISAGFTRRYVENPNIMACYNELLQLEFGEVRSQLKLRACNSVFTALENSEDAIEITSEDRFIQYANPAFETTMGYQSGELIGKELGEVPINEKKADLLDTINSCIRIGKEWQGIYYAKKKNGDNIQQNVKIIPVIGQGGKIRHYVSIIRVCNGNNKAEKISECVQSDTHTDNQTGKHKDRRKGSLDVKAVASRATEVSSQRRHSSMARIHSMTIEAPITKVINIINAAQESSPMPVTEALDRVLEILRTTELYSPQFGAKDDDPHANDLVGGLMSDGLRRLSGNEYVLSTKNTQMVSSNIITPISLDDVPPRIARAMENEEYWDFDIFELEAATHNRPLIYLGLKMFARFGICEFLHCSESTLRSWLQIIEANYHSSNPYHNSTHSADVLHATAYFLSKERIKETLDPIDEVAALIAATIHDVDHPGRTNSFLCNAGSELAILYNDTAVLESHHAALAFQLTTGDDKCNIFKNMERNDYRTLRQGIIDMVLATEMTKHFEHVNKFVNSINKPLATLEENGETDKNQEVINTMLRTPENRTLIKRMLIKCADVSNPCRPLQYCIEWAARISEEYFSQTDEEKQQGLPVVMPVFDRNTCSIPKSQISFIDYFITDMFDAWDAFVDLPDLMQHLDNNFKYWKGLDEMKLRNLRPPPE

[9] = target: High affinity cGMP-specific 3',5'-cyclic phosphodiesterase 9A (Homo sapiens) (UniProt O76083); experiment: Inhibition of N-terminal GST-tagged human recombinant PDE9A assessed as substrate hydrolysis using [3H]cGMP as substrate at 1 uM after 30 mins by two-step radiometric assay
Liver microsome [10] = experiment: Metabolic stability in rat liver microsomes assessed as metabolite M8 (1-(9-methyl-9H-pyrido[2,3-b]indol-3-yl)-2-(3-(pyrimidin-5-yl)pyridin-2-yloxy)ethanol) formation at 1 uM after 60 mins by LC-MS/MS analysis; assay type: ADME; settings: 1 h
[11] = target: cGMP-inhibited 3',5'-cyclic phosphodiesterase 3A (Homo sapiens) (UniProt Q14432); experiment: Inhibition of N-terminal GST-tagged human recombinant PDE3A assessed as substrate hydrolysis using cAMP as substrate at 1 uM after 30 mins by homogenous time-resolved fluorescence method
[12] = target: cGMP-dependent 3',5'-cyclic phosphodiesterase (Homo sapiens) (UniProt O00408); experiment: Inhibition of N-terminal GST-tagged human recombinant PDE2A assessed as substrate hydrolysis using cAMP as substrate at 1 uM after 30 mins by homogenous time-resolved fluorescence method
Chain of cGMP-dependent 3',5'-cyclic phosphodiesterase (Homo sapiens) (O00408 whole entry): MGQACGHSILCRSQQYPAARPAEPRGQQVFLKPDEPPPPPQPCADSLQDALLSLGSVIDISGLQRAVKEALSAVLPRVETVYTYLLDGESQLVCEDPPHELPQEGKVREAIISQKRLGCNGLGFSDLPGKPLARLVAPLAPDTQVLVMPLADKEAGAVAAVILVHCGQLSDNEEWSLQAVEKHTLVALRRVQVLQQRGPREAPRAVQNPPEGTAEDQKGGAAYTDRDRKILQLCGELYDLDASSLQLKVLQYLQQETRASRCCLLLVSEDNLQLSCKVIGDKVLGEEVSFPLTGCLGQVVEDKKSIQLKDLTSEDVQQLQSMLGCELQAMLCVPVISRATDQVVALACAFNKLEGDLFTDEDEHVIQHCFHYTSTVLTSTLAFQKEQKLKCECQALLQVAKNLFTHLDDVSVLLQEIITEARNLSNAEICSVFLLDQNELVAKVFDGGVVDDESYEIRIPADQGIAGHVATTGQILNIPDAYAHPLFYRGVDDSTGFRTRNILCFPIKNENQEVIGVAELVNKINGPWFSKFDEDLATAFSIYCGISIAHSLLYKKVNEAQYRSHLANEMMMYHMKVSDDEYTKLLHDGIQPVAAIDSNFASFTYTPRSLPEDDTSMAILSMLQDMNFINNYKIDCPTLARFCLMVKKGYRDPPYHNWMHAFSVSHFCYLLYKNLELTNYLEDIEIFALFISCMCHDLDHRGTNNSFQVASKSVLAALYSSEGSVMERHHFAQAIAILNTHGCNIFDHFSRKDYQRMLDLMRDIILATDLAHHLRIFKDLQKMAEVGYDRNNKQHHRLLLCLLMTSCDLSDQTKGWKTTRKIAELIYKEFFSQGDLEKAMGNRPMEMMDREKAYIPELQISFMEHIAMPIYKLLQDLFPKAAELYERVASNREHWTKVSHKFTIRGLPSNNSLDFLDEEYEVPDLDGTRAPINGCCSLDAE

Liver microsome [13] = experiment: Metabolic stability in rat liver microsomes assessed as metabolite M9 (9-methyl-3-(2-(3-(pyrimidin-5-yl)pyridin-2-yloxy)vinyl)-9H-pyrido[2,3-b]indole) formation at 1 uM after 60 mins by LC-MS/MS analysis; assay type: ADME; settings: 1 h
[14] = target: T1, cAMP and cAMP-inhibited cGMP 3',5'-cyclic phosphodiesterase 10A; experiment: Inhibition of N-terminal GST-tagged human recombinant PDE10A assessed as substrate hydrolysis using [3H]cAMP as substrate at 1 uM after 30 mins by two-step radiometric assay
Homo sapiens = species: Homo sapiens; experiment: Selectivity for human recombinant PDE10A over human recombinant PDE2A
[15] = target: Dual 3',5'-cyclic-AMP and -GMP phosphodiesterase 11A (Homo sapiens) (UniProt Q9HCR9); experiment: Inhibition of N-terminal GST-tagged human recombinant PDE11A assessed as substrate hydrolysis using [3H]cAMP as substrate at 1 uM after 30 mins by two-step radiometric assay
Chain of Dual 3',5'-cyclic-AMP and -GMP phosphodiesterase 11A (Homo sapiens) (Q9HCR9 whole entry, looked up): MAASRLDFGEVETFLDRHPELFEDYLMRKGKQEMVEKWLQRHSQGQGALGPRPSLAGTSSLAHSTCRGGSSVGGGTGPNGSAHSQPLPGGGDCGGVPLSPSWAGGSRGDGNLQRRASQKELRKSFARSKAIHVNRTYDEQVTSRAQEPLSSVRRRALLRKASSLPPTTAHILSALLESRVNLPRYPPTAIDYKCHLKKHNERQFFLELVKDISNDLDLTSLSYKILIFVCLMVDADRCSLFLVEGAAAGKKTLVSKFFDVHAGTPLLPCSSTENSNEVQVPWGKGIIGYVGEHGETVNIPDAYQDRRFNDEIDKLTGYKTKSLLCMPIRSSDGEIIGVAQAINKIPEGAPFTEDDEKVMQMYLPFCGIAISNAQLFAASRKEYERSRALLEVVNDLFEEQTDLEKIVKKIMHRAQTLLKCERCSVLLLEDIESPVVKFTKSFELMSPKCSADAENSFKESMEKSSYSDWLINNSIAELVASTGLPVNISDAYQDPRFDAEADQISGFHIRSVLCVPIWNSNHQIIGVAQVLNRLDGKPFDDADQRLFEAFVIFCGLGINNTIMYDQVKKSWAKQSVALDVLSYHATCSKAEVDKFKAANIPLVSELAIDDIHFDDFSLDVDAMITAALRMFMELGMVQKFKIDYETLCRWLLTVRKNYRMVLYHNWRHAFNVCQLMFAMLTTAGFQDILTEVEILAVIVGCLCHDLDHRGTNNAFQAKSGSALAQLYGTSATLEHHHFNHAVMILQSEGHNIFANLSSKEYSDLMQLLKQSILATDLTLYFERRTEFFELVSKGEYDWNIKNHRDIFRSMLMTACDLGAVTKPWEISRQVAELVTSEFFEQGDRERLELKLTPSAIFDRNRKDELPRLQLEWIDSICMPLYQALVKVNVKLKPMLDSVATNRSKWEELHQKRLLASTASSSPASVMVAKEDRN

Liver microsome [16] = experiment: Metabolic stability in rat liver microsomes assessed as metabolite M1 (3-(2-(3-(pyrimidin-5-yl)pyridin-2-yloxy)ethyl)-9H-pyrido[23-b]indole 1-oxide) formation at 1 uM after 60 mins by LC-MS/MS analysis; assay type: ADME; settings: 1 h
Liver microsome [17] = experiment: Metabolic stability in rat liver microsomes assessed as metabolite M5 (2-(2-(9-methyl-9H-pyrido[2,3-b]indol-3-yl)vinyloxy)-3-(pyrimidin-5-yl)pyridine 1-oxide) formation at 1 uM after 60 mins by LC-MS/MS analysis; assay type: ADME; settings: 1 h
[18] = target: cGMP-dependent 3',5'-cyclic phosphodiesterase (Homo sapiens) (UniProt O00408); experiment: Inhibition of N-terminal GST-tagged human recombinant PDE2A assessed as substrate hydrolysis using cAMP as substrate at 10 uM after 30 mins by homogenous time-resolved fluorescence method
Liver microsome [19] = experiment: Metabolic stability in rat liver microsomes assessed as metabolite M2 (9-methyl-3-(2-(3-(pyrimidin-5-yl)pyridin-2-yloxy)vinyl)-9H-pyrido[2,3-b]indole 9-oxide) formation at 1 uM after 60 mins by LC-MS/MS analysis; assay type: ADME; settings: 1 h
Liver microsome [20] = experiment: Metabolic stability in rat liver microsomes assessed as metabolite M4 (9-methyl-3-(2-(3-(pyrimidin-5-yl)pyridin-2-yloxy)vinyl)-9H-pyrido[2,3-b]indole 1-oxide) formation at 1 uM after 60 mins by LC-MS/MS analysis; assay type: ADME; settings: 1 h
Liver microsome [21] = experiment: Metabolic stability in rat liver microsomes assessed as metabolite M6 (3-(2-(3-(pyrimidin-5-yl)pyridin-2-yloxy)ethyl)-9H-pyrido[2,3-b]indole) formation at 1 uM after 60 mins by LC-MS/MS analysis; assay type: ADME; settings: 1 h
Liver microsome [22] = experiment: Metabolic stability in rat liver microsomes assessed as metabolite M3 (1-(9H-pyrido[2,3-b]indol-3-yl)-2-(3-(pyrimidin-5-yl)pyridin-2-yloxy)ethanol) formation at 1 uM after 60 mins by LC-MS/MS analysis; assay type: ADME; settings: 1 h
[23] = target: 3',5'-cyclic-AMP phosphodiesterase 4D (Homo sapiens) (UniProt Q08499); experiment: Inhibition of N-terminal GST-tagged human recombinant PDE4D assessed as substrate hydrolysis using [3H]cAMP as substrate at 1 uM after 30 mins by two-step radiometric assay
Chain of 3',5'-cyclic-AMP phosphodiesterase 4D (Homo sapiens) (Q08499 whole entry): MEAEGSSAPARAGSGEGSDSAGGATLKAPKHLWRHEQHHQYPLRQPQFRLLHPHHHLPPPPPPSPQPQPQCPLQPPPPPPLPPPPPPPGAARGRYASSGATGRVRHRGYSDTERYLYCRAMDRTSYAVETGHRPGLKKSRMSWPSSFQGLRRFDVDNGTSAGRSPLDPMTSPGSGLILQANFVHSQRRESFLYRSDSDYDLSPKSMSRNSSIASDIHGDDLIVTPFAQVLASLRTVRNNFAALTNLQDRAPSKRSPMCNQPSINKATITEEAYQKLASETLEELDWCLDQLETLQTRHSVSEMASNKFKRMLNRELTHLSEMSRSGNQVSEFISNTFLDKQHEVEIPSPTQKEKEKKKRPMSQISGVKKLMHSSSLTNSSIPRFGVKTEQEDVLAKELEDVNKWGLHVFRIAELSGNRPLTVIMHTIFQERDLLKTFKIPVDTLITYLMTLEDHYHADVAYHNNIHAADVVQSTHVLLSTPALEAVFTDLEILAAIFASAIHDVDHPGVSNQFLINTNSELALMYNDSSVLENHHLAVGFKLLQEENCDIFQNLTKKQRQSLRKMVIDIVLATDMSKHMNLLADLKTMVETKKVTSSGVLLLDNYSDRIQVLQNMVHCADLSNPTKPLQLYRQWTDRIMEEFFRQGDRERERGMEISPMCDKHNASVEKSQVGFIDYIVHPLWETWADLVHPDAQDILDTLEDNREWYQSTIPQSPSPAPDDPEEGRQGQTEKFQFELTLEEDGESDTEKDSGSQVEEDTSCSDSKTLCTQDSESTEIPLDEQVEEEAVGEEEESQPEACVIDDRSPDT

[24] = target: High affinity 3',5'-cyclic-AMP phosphodiesterase 7A (Homo sapiens) (UniProt Q13946); experiment: Inhibition of N-terminal GST-tagged human recombinant PDE7A assessed as substrate hydrolysis using [3H]cAMP as substrate at 1 uM after 30 mins by two-step radiometric assay

SMILES: Cn1c2ccccc2c2cc(CCOc3ncccc3-c3cncnc3)cnc21
- IC50 [1]: 24.2 nM
- inhibition [2]: 23.9%
- Retention_time [3]: 14.51 min
- remaining at 1 h, 1 µM [4]: 0.45%
- Drug metabolism (Liver microsome [5]): metabolite_detected
- remaining at 1 h, 1 µM [6]: 1.93%
- inhibition [7]: 10.7%
- inhibition [8]: 0%
- inhibition [9]: 9.8%
- Drug metabolism (Liver microsome [10]): metabolite_detected
- inhibition [11]: 0%
- inhibition [12]: 67.2%
- Drug metabolism (Liver microsome [13]): metabolite_detected
- inhibition [14]: 92.5%
- Selectivity ratio (Homo sapiens): 100
- inhibition [15]: 12.4%
- Drug metabolism (Liver microsome [16]): metabolite_detected
- Drug metabolism (Liver microsome [17]): metabolite_detected
- inhibition [18]: 60%
- Drug metabolism (Liver microsome [19]): metabolite_detected
- Drug metabolism (Liver microsome [20]): metabolite_detected
- Drug metabolism (Liver microsome [21]): metabolite_detected
- Drug metabolism (Liver microsome [22]): metabolite_detected
- inhibition [23]: 25.8%
- inhibition [24]: 20.7%
